# US8119696B2, “Treatment of superficial and cutaneous mycoses with a pure form of 1,7-bis(4-hydroxy-3-methoxyphenyl)-3,5-heptanedione” (priority 2007, dated 2012)
# “Also recorded” adds a separate entry of the source.
# What was measured:
# Assay type in all cases: cell-based
# [1] = tested on: Microsporum gypseum; assay: Anti-dermatophytic activity, agar dilution method (Sabouraud's dextrose agar); settings: for Growth of test organism (Negative/Growth): DMSO solvent, SDA, trials MG1-MG3; for Inhibition of growth at all tested concentrations: concentrations 0.15%, 0.31%, 0.625%, 1.25%, 2.50% and 5.0%
# Procedure: (§1) The anti-dermatophyte efficacy testing for greater than 99% pure form of 1,7-Bis(4-hydroxy-3-methoxyphenyl)-3,5-heptanedione (coded TP) in comparison to the corresponding 95% pure form (coded SW) was done by the agar dilution method. The medium used was Sabouraud's dextrose agar (SDA). Doubling concentration ranges from about 0.15% to about 5% of TP and […] was prepared in 5 ml Dimethylsulfoxide and added to 95 ml of SDA to form a total volume of 100 ml of the medium. The test organisms Trichophyton rubrum, Microsporum gypseum and Epidermophyton floccosum encoded as TR, MG and EF were inoculated in biosafety level 2 standards into the media comprising test compounds in the specified concentration ranges. Triplicate experiments were set up for each of the three fungi for each concentration of the test compounds to ensure reproducibility of results. DMSO and SDA controls were also included in triplicates for the test.
# (§2) The test results are represented as Table I (FIG. 1, FIG. 2 and FIG. 3). The table may be read as follows. For example, TPTR1 represents growth of Trichophyton rubrum in greater than 99% pure form of 1,7-Bis (4-hydroxy-3-methoxyphenyl)-3,5-heptanedione in the first test. Similarly duplicate and triplicate testing are represented as TPTR2 and TPTR3.
# [2] = tested on: Trichophyton rubrum; assay: as above; settings: for Growth of test organism (Negative/Growth): DMSO solvent, SDA, trials TR1-TR3; for Inhibition of growth at all tested concentrations: concentrations 0.15%, 0.31%, 0.625%, 1.25%, 2.50% and 5.0%
# Procedure: as §1, §2
# [3] = tested on: Epidermophyton floccosum; assay: as above; settings: for Growth of test organism (Negative/Growth): DMSO solvent, SDA, trials EF1-EF3; for Inhibition of growth at all tested concentrations: concentrations 0.15%, 0.31%, 0.625%, 1.25%, 2.50% and 5.0%
# Procedure: as §1, §2
# [4] = tested on: Malassezia furfur; assay: Antifungal efficacy, agar dilution method (Sabourauds Dextrose Agar with an overlay of coconut oil); settings: for Growth of test organism (Negative/Growth): DMSO solvent, trials MF1-MF3
# [5] = tested on: Candida albicans NCIM 3471 (yeast); assay: Activity against Candida species: colony counts over 28 days
# [6] = tested on: Fusarium oxysporum (mycotoxin producing fungus); assay: Activity against Fusarium oxysporum: counts over 28 days; settings: inoculation level 1 × 10^7 CFU/g
# [7] = final concentration 0.15%, listed as 95% pure form of 1,7-Bis(4-hydroxy-3-methoxyphenyl)-3,5-heptanedione
# [8] = test interval 7 days, listed as 1,7-bis(4-hydroxy-3-methoxyphenyl)-3,5-heptanedione (about 95% purity)
# [9] = test interval 14 days, listed as 1,7-bis(4-hydroxy-3-methoxyphenyl)-3,5-heptanedione (about 95% purity)
# [10] = test interval 21 days, listed as 1,7-bis(4-hydroxy-3-methoxyphenyl)-3,5-heptanedione (about 95% purity)
# [11] = test interval 28 days, listed as 1,7-bis(4-hydroxy-3-methoxyphenyl)-3,5-heptanedione (about 95% purity)
# [12] = listed as greater than 99% pure form of 1,7-Bis(4-hydroxy-3-methoxyphenyl)-3,5-heptanedion
# [13] = test interval 7 days, listed as 1,7-bis(4-hydroxy-3-methoxyphenyl)-3,5-heptanedione (>99% purity)
# [14] = test interval 14 days, listed as 1,7-bis(4-hydroxy-3-methoxyphenyl)-3,5-heptanedione (>99% purity)
# [15] = test interval 21 days, listed as 1,7-bis(4-hydroxy-3-methoxyphenyl)-3,5-heptanedione (>99% purity)
# [16] = test interval 28 days, listed as 1,7-bis(4-hydroxy-3-methoxyphenyl)-3,5-heptanedione (>99% purity)
# [17] = test interval 28 days, listed as greater than 99% pure form of 1,7-bis(4-hydroxy-3-methoxyphenyl)-3,5-heptanedion
smiles,measurement,setting,value
"COc1cc(CCC(=O)CC(=O)CCc2ccc(O)c(OC)c2)ccc1O [SW, 1,7-Bis(4-hydroxy-3-methoxyphenyl)-3,5-heptanedione]",Growth of test organism (Negative/Growth),[1]; final concentration 0.15%,tolerated by the fungi; also recorded: Growth
same,Growth of test organism (Negative/Growth),[1]; [7],grow
same,Growth of test organism (Negative/Growth),[1]; final concentration 0.31%,Negative
same,Growth of test organism (Negative/Growth),[1]; final concentration 0.625%,Negative
same,Growth of test organism (Negative/Growth),[1]; final concentration 1.25%,Negative
same,Growth of test organism (Negative/Growth),[1]; final concentration 2.5%,Negative
same,Growth of test organism (Negative/Growth),[1]; final concentration 5%,Negative
same,Growth of test organism (Negative/Growth),[2]; final concentration 0.15%,tolerated by the fungi; also recorded: Growth
same,Growth of test organism (Negative/Growth),[2]; [7],grow
same,Growth of test organism (Negative/Growth),[2]; final concentration 0.31%,Negative
same,Growth of test organism (Negative/Growth),[2]; final concentration 0.625%,Negative
same,Growth of test organism (Negative/Growth),[2]; final concentration 1.25%,Negative
same,Growth of test organism (Negative/Growth),[2]; final concentration 2.5%,Negative
same,Growth of test organism (Negative/Growth),[2]; final concentration 5%,Negative
same,Growth of test organism (Negative/Growth),[3]; final concentration 0.15%,able to grow; also recorded: Growth
same,Growth of test organism (Negative/Growth),[3]; [7],grow
same,Growth of test organism (Negative/Growth),[3]; final concentration 0.31%,able to grow; also recorded: Growth
same,Growth of test organism (Negative/Growth),"[3]; final concentration 0.31%, listed as 95% pure form of 1,7-Bis(4-hydroxy-3-methoxyphenyl)-3,5-heptanedione",tolerant
same,Growth of test organism (Negative/Growth),[3]; final concentration 0.625%,Negative
same,Growth of test organism (Negative/Growth),[3]; final concentration 1.25%,Negative
same,Growth of test organism (Negative/Growth),[3]; final concentration 2.5%,Negative
same,Growth of test organism (Negative/Growth),[3]; final concentration 5%,Negative
same,Concentration that inhibits the growth of the fungus,[4]; agar dilution,≥ 1.25%
same,Growth of test organism (Negative/Growth),[4]; final concentration 0.15%,Growth
same,Growth of test organism (Negative/Growth),[4]; final concentration 0.31%,Growth
same,Growth of test organism (Negative/Growth),[4]; final concentration 0.625%,Growth
same,Growth of test organism (Negative/Growth),[4]; final concentration 1.25%,Negative; also recorded: Growth
same,Growth of test organism (Negative/Growth),[4]; final concentration 2.5%,Negative
same,Growth of test organism (Negative/Growth),[4]; final concentration 5%,Negative
same,Concentration of organism,"[5]; test interval 0 days, listed as 1,7-bis(4-hydroxy-3-methoxyphenyl)-3,5-heptanedione (about 95% purity)",25 × 10^5 cfu/ml
same,Concentration of organism,[5]; [8],19.7 × 10^5 cfu/ml
same,Log Reduction,[5]; [8],0.2
same,Percent Reduction,[5]; [8],21.2%
same,Concentration of organism,[5]; [9],16 × 10^4 cfu/ml
same,Log Reduction,[5]; [9],2.3
same,Percent Reduction,[5]; [9],99.3%
same,Concentration of organism,[5]; [10],53 × 10^5 cfu/ml
same,Log Reduction,[5]; [10],0.7
same,Percent Reduction,[5]; [10],78.6%
same,Concentration of organism,[5]; [11],31.5 × 10^5 cfu/ml
same,Log Reduction,[5]; [11],0.8
same,Percent Reduction,[5]; [11],87.4%
"COc1cc(CCC(=O)CC(=O)CCc2ccc(O)c(OC)c2)ccc1O [TP, 1,7-Bis(4-hydroxy-3-methoxyphenyl)-3,5-heptanedione]",Inhibition of growth at all tested concentrations,[1],inhibits the growth
same,Inhibition of growth at all tested concentrations,[1]; [12],completely inhibiting the growth
same,Growth of test organism (Negative/Growth),[1]; final concentration 0.15%,Negative
same,Growth of test organism (Negative/Growth),[1]; final concentration 0.31%,Negative
same,Growth of test organism (Negative/Growth),[1]; final concentration 0.625%,Negative
same,Growth of test organism (Negative/Growth),[1]; final concentration 1.25%,Negative
same,Growth of test organism (Negative/Growth),[1]; final concentration 2.5%,Negative
same,Growth of test organism (Negative/Growth),[1]; final concentration 5%,Negative
same,Inhibition of growth at all tested concentrations,[2],inhibits the growth
same,Inhibition of growth at all tested concentrations,[2]; [12],completely inhibiting the growth
same,Growth of test organism (Negative/Growth),[2]; final concentration 0.15%,Negative
same,Growth of test organism (Negative/Growth),[2]; final concentration 0.31%,Negative
same,Growth of test organism (Negative/Growth),[2]; final concentration 0.625%,Negative
same,Growth of test organism (Negative/Growth),[2]; final concentration 1.25%,Negative
same,Growth of test organism (Negative/Growth),[2]; final concentration 2.5%,Negative
same,Growth of test organism (Negative/Growth),[2]; final concentration 5%,Negative
same,Inhibition of growth at all tested concentrations,[3],inhibits the growth
same,Inhibition of growth at all tested concentrations,[3]; [12],completely inhibiting the growth
same,Growth of test organism (Negative/Growth),[3]; final concentration 0.15%,Negative
same,Growth of test organism (Negative/Growth),[3]; final concentration 0.31%,Negative
same,Growth of test organism (Negative/Growth),[3]; final concentration 0.625%,Negative
same,Growth of test organism (Negative/Growth),[3]; final concentration 1.25%,Negative
same,Growth of test organism (Negative/Growth),[3]; final concentration 2.5%,Negative
same,Growth of test organism (Negative/Growth),[3]; final concentration 5%,Negative
same,Day 0 count,[6],1 × 10^7 CFU/g
same,Day 7 count,[6],<10 CFU/g
same,Day 14 count,[6],<10 CFU/g
same,Day 28 Count,[6],<10 CFU/g
same,"Activity against Malassezia furfur at all tested concentration, in contrast to the 95% pure form",[4]; 0.15% to 5%,enhanced activity
same,Growth of test organism (Negative/Growth),[4]; final concentration 0.15%,Negative
same,Growth of test organism (Negative/Growth),[4]; final concentration 0.31%,Negative
same,Growth of test organism (Negative/Growth),[4]; final concentration 0.625%,Negative
same,Growth of test organism (Negative/Growth),[4]; final concentration 1.25%,Negative
same,Growth of test organism (Negative/Growth),[4]; final concentration 2.5%,Negative
same,Growth of test organism (Negative/Growth),[4]; final concentration 5%,Negative
same,Concentration of organism,"[5]; test interval 0 days, listed as 1,7-bis(4-hydroxy-3-methoxyphenyl)-3,5-heptanedione (>99% purity)",14.6 × 10^5 cfu/ml
same,Concentration of organism,[5]; [13],72 × 10^5 cfu/ml
same,Log Reduction,[5]; [13],0.5
same,Percent Reduction,[5]; [13],50.6%
same,Concentration of organism,[5]; [14],20 × 10^8 cfu/ml
same,Log Reduction,[5]; [14],2.8
same,Percent Reduction,[5]; [14],99.8%
same,Concentration of organism,[5]; [15],75 × 10^2 cfu/ml
same,Log Reduction,[5]; [15],3.4
same,Percent Reduction,[5]; [15],99.94%
same,Concentration of organism,[5]; [16],<130 cfu/ml
same,Log Reduction,[5]; [16],5.3
same,Percent Reduction,[5]; [16],99.99%
same,Concentration of organism,[5]; [17],less than 100 cfu/ml
same,Percent Reduction,[5]; [17],99.99%
